Measurements: US10285382B2 (priority 2017, dated 2019)
Like-named read-outs stand apart in the source and are kept apart here.

Test system: eggs
[1] = 4 day delta: Day 4 DHP+ versus Day 4 DHP−
[2] = 5 day delta: Day 5 DHP+ versus Day 5 DHP−
[3] = 6 day delta: Day 6 DHP+ versus Day 6 DHP−
[4] = Day 4 DHP+, summary over replicates stored 4 days
[5] = Day 5 DHP+, summary over replicates stored 5 days
[6] = Day 6 DHP+, summary over replicates stored 6 days
[7] = Day 7 DHP+, summary over replicates stored 7 days
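Note: paired egg replicates incubated to hatching under standard commercial conditions, then each category scored at hatch as percent of eggs in the replicate.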

Method: A total of 22 replicates of 90 eggs each of age matched, flock matched eggs are stored prior to incubation for 4 to 7 days in an on-site egg room at about 20° C. […] The paired replicates are then incubated to hatching under standard commercial conditions. At hatching, the following parameters are assessed and recorded: Total Hatchability (%), Fertile Hatchability (%), % Infertile, Early dead (%), Mid dead (%), Late dead (%), Cracked (%), Contaminated (%), Live pip (%), Dead pip (%), Cull dead chick (%), Chick Weight (g), Chick A (%), and Chick B (%).

OO [DHP, dry hydrogen peroxide] was tested, and the “% Infertile, delta” value [1] was 0.64%, the “Chick A, delta” value [1] was 0.14% and the “Chick B, delta” value [1] was −0.14%. For the same compound, the “Chick Weight, delta” value [1] was 0.89 g, the “Cont, delta” value [1] was 0.00% and the “Crack, delta” value [1] was 0.32%. The “Cull dead cks, delta” value [1] was 0.00%, the “Dead pip, delta” value [1] was −0.16% and the “Early dead, delta” value [1] was −0.33%. For the same compound, the “Fertile Hatchability, delta” value [1] was 0.12%, the “Late dead, delta” value [1] was −0.64% and the “Live pip, delta” value [1] was 0.63%. For the same compound, the “Mid dead, delta” value [1] was 0.16%, the “Total Hatchability, delta” value [1] was −0.64% and the “% Infertile, delta” value [2] was 1.84%. The “Chick A, delta” value [2] was 1.73%, the “Chick B, delta” value [2] was −1.73% and the “Chick Weight, delta” value [2] was 0.85 g. For the same compound, the “Cont, delta” value [2] was 0.00%, the “Crack, delta” value [2] was −0.19% and the “Cull dead cks, delta” value [2] was 0.00%. The “Dead pip, delta” value [2] was −0.37%, the “Early dead, delta” value [2] was −1.70% and the “Fertile Hatchability, delta” value [2] was 3.20%. For the same compound, the “Late dead, delta” value [2] was −2.05%, the “Live pip, delta” value [2] was 0.37% and the “Mid dead, delta” value [2] was 0.74%. For the same compound, the “Total Hatchability, delta” value [2] was 1.36%, the “% Infertile, delta” value [3] was 0.94% and the “Chick A, delta” value [3] was −0.57%. For the same compound, the “Chick B, delta” value [3] was 0.57%, the “Chick Weight, delta” value [3] was 0.49 g and the “Cont, delta” value [3] was 0.00%. The “Crack, delta” value [3] was 0.00%, the “Cull dead cks, delta” value [3] was −0.48% and the “Dead pip, delta” value [3] was −0.48%. The “Early dead, delta” value [3] was −2.77%, the “Fertile Hatchability, delta” value [3] was 4.67% and the “Late dead, delta” value [3] was −0.82%. For the same compound, the “Live pip, delta” value [3] was −0.16%, the “Mid dead, delta” value [3] was 0.48% and the “Total Hatchability, delta” value [3] was 2.96%. For the same compound, the “% Infertile” value [4] was 2.39%, the “Chick A” value [4] was 96.98% and the “Chick B” value [4] was 3.02%. The “Chick Weight” value [4] was 44.69 g, the Cont [4] was 0.00% and the Crack [4] was 0.48%. The Cull dead cks [4] was 0.00%, the Dead pip [4] was 0.16% and the Early dead [4] was 4.12%. For the same compound, the “Fertile Hatchability” value [4] was 92.21%, the Late dead [4] was 1.74% and the Live pip [4] was 0.95%. The Mid dead [4] was 0.16%, the “Total Hatchability” value [4] was 89.99% and the “% Infertile” value [5] was 4.44%. For the same compound, the “Chick A” value [5] was 98.37%, the “Chick B” value [5] was 1.64% and the “Chick Weight” value [5] was 44.29 g. For the same compound, the Cont [5] was 0.00%, the Crack [5] was 0.00% and the Cull dead cks [5] was 0.00%. For the same compound, the Dead pip [5] was 0.00%, the Early dead [5] was 1.85% and the “Fertile Hatchability” value [5] was 95.33%. For the same compound, the Late dead [5] was 1.11%, the Live pip [5] was 0.56% and the Mid dead [5] was 0.93%. The “Total Hatchability” value [5] was 91.11%, the “% Infertile” value [6] was 2.22% and the “Chick A” value [6] was 96.88%. The “Chick B” value [6] was 3.12%, the “Chick Weight” value [6] was 44.30 g and the Cont [6] was 0.00%. The Crack [6] was 0.00%, the Cull dead cks [6] was 0.00% and the Dead pip [6] was 0.00%. The Early dead [6] was 2.70%, the “Fertile Hatchability” value [6] was 94.14% and the Late dead [6] was 2.06%. The Live pip [6] was 0.16%, the Mid dead [6] was 0.79% and the “Total Hatchability” value [6] was 92.06%. The “% Infertile” value [7] was 0.56%, the “Chick A” value [7] was 97.06% and the “Chick B” value [7] was 2.94%. For the same compound, the “Chick Weight” value [7] was 44.68 g, the Cont [7] was 0.00% and the Crack [7] was 0.00%. It also gave a Cull dead cks [7] of 0.56%, a Dead pip [7] of 0.00% and an Early dead [7] of 1.11%. For the same compound, the “Fertile Hatchability” value [7] was 94.98%, the Late dead [7] was 1.67% and the Live pip [7] was 1.11%. It also gave a Mid dead [7] of 0.56%.
